According to article PMC10673995, “Discovery of a novel cardiac-specific myosin modulator using artificial intelligence-based virtual screening” (Nature Communications, 2023):
Several values for one entry are separate records, joined by “and”; a condition that tells them apart may be missing. Equal values may be shown once.

Columns and labels:
[1] = molecular target: bovine cardiac myofibrils (Bos taurus, UniProt Q9BE39); experiment: mant-ATP chase single nucleotide turnover, cardiac myofibrils;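 note: bovine cardiac myofibrils at 1 mg/mL in PIPES buffer, 20 µM mant-ATP aged 1 min then chased with 20 mM ATP, fluorescence (ex 360, em 450 nm) read every second for 15 min at 25 °C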
[2] = molecular target: T1, synthetic thick filaments formed from purified full-length bovine β-cardiac myosin (Bos taurus, UniProt Q9BE39); experiment: mant-ATP chase single nucleotide turnover, synthetic thick filaments; assay type: biochemical; conditions: for Representative Traces (mant-ATP chase, fluorescence signal over time): Figure 3b
T1 construct: diluting full-length bovine cardiac myosin stock into assay buffer; from tissue; host or cells: bovine cardiac muscle (the text says isolated/purified and describes no preparation)
Text: We used systems of increasing complexity ranging from the isolated cardiac myosin motor domains (Fig. 3a) to synthetic thick filaments formed from purified full-length bovine cardiac myosin (Fig. 3b) and bovine cardiac myofibrils as substrates in the chase assays (Fig. 3c). In contrast to the isolated myosin motors, synthetic thick filaments contain two myosin head domains per molecule connected via their coiled-coil tail.
Synthetic thick filaments were freshly prepared by diluting full-length bovine cardiac myosin stock into assay buffer (composition in mmol L^−1: 15 PIPES pH 7, 5 MgCl2, 1 DTT) and incubation on ice for 2 h. Bovine myosin S1 and synthetic thick filament concentrations were adjusted to 0.4 μmol L^−1 with assay buffer and 40 μL aliquoted into individual wells of a black 384-well plate (Greiner). Mant-ATP (JenaBioscience) was added to each well to a final concentration of 0.4 μmol L^−1 using an automated injector unit in a ClarioStar Plate Reader (BMG LabTech) and the system was allowed to age for 1 min. The chase phase was started by adding a final concentration of 2 mmol L^−1 ATP using a second automated injector unit. Fluorescence intensity from each well was constantly measured for 15 min every 1 sec at 25 °C with the following settings: excitation at 360 nm with a 20 nm bandwidth and emission at 450 nm with a 20 nm bandwidth. For experiments with cardiac myofibrils the concentration was adjusted to 1 mg m L^−1, and the mant-ATP and ATP concentrations were increased to 20 μmol L^−1 and 20 mmol L^−1, respectively.

[3] = Cardiac myofibrils, individual replicates
[4] = Synthetic Myosin Filaments, individual replicates

Sequence of bovine cardiac myofibrils (Q9BE39 whole entry): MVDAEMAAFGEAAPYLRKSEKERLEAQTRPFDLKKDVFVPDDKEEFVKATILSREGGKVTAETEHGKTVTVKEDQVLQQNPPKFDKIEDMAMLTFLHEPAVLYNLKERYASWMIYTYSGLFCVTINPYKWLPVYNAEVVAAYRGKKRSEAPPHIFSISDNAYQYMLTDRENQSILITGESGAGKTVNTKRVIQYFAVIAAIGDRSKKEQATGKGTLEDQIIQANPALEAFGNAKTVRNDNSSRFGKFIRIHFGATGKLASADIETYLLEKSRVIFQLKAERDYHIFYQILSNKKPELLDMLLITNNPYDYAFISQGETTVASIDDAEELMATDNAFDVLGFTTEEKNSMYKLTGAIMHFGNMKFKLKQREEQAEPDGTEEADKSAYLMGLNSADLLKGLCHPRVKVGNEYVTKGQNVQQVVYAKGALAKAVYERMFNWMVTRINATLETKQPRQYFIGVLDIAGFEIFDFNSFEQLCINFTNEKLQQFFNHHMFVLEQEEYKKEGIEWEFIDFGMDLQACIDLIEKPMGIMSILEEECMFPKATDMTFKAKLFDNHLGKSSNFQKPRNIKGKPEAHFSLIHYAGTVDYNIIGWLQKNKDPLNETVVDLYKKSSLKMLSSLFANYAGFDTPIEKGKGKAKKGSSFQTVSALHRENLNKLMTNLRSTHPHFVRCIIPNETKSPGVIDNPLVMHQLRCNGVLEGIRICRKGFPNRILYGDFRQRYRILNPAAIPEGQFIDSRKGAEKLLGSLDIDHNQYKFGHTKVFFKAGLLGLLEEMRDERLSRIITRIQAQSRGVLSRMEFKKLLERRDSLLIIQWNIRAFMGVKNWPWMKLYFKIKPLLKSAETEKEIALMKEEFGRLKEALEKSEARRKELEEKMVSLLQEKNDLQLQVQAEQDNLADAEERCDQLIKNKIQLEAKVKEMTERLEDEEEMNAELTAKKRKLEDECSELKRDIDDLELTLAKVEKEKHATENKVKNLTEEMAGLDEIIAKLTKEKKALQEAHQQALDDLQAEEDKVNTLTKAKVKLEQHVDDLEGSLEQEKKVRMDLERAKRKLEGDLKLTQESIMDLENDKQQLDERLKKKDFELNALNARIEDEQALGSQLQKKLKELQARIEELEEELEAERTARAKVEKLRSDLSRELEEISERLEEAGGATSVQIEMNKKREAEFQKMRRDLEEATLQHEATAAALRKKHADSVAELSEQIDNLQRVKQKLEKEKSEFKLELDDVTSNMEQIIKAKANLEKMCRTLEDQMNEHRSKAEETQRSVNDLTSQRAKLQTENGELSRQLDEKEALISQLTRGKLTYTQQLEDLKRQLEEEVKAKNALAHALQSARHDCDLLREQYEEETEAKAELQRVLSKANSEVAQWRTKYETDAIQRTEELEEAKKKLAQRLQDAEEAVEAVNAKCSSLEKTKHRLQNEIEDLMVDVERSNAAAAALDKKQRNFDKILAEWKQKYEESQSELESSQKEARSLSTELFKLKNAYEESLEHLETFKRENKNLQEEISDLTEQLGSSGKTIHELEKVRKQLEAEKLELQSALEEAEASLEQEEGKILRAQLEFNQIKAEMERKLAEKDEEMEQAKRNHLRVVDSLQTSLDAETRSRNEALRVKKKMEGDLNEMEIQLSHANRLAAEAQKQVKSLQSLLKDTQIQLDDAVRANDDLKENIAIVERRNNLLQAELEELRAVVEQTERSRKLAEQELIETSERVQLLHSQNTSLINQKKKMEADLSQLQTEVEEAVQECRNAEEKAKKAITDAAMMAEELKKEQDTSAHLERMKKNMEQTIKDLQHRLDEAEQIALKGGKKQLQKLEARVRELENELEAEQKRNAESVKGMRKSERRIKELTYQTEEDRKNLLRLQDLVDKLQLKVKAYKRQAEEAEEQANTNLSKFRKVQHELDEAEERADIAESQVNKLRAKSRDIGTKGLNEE
Sequence of bovine cardiac myofibrils (P85100 whole entry partner): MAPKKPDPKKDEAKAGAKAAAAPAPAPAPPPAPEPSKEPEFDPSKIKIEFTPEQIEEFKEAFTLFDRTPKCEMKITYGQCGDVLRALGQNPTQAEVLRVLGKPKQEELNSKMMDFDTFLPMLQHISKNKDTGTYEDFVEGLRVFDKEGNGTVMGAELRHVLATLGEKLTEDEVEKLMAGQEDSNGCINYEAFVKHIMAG
Sequence of bovine cardiac myofibrils (Q3SZE5 whole entry partner): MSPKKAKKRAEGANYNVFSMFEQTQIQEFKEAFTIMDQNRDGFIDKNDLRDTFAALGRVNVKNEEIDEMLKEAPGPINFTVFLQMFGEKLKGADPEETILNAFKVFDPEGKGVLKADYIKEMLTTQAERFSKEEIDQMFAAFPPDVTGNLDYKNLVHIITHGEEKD
T1 sequence (Q9BE39 whole entry): as the sequence (Q9BE39 whole entry) above
T1 sequence (P85100 whole entry partner): as the sequence (P85100 whole entry partner) above
T1 sequence (Q3SZE5 whole entry partner): as the sequence (Q3SZE5 whole entry partner) above

SMILES: CCc1cc2c(=O)n(NC(=S)NC(C)C)cnc2s1 [F10]
- effect on the rate of the fast phase [1]: no effect
- kfast ([1]; 2 μmol L^−1 Mavacamten or 20 μmol L^−1 F10, control 0.0719 ± 0.0193): 0.0552 ± 0.0106 s⁻¹
- kfast [1, 3]: 0.02031 s⁻¹ and 0.02851 s⁻¹ and 0.03852 s⁻¹ and 0.09761 s⁻¹ and 0.08409 s⁻¹ and 0.06218 s⁻¹
- kslow [1, 3]: 0.003333 s⁻¹ and 0.002949 s⁻¹ and 0.001064 s⁻¹ and 0.001853 s⁻¹ and 0.00204 s⁻¹ and 0.001557 s⁻¹
- slow phase [1, 3]: 72.63% and 66.55% and 67.45% and 65.69% and 56.45% and 78.18%
- Bar graph ([1]; Figure 3c, individual replicates): 72.63 and 66.55 and 67.45 and 65.69 and 56.45 and 78.18
- Representative Traces ([1]; t [s] = 6): 0.8687
- Representative Traces ([1]; t [s] = 7): 0.7649
- Representative Traces ([1]; t [s] = 8): 0.847
- Representative Traces ([1]; t [s] = 9): 0.7441
- Representative Traces ([1]; t [s] = 10): 0.7291
- Representative Traces ([1]; t [s] = 11): 0.7606
- Representative Traces ([1]; t [s] = 12): 0.6903
- Representative Traces ([1]; t [s] = 13): 0.6968
- Representative Traces ([1]; t [s] = 14): 0.7384
- Representative Traces ([1]; t [s] = 96): 0.4594
- Representative Traces ([1]; t [s] = 97): 0.4902
- Representative Traces ([1]; t [s] = 98): 0.4564
- Representative Traces ([1]; t [s] = 99): 0.5227
- Representative Traces ([1]; t [s] = 100): 0.5227
- Representative Traces ([1]; t [s] = 101): 0.4329
- Representative Traces ([1]; t [s] = 102): 0.4816
- Representative Traces ([1]; t [s] = 103): 0.4496
- Representative Traces ([1]; t [s] = 104): 0.4983
- Representative Traces ([1]; t [s] = 105): 0.4303
- Representative Traces ([1]; t [s] = 106): 0.4469
- Representative Traces ([1]; t [s] = 107): 0.4441
- Representative Traces ([1]; t [s] = 108): 0.454
- Representative Traces ([1]; t [s] = 109): 0.4003
- Representative Traces ([1]; t [s] = 110): 0.4314
- Representative Traces ([1]; t [s] = 111): 0.4793
- Representative Traces ([1]; t [s] = 112): 0.4152
- Representative Traces ([1]; t [s] = 113): 0.4525
- Representative Traces ([1]; t [s] = 114): 0.4165
- Representative Traces ([1]; t [s] = 115): 0.4344
- Representative Traces ([1]; t [s] = 116): 0.416
- Representative Traces ([1]; t [s] = 117): 0.4849
- Representative Traces ([1]; t [s] = 118): 0.4794
- Representative Traces ([1]; t [s] = 119): 0.4668
- Representative Traces ([1]; t [s] = 120): 0.4665
- Representative Traces ([1]; t [s] = 121): 0.4689
- Representative Traces ([1]; t [s] = 122): 0.4838
- Representative Traces ([1]; t [s] = 123): 0.4652
- Representative Traces ([1]; t [s] = 124): 0.4182
- Representative Traces ([1]; t [s] = 125): 0.3966
- Representative Traces ([1]; t [s] = 126): 0.4538
- Representative Traces ([1]; t [s] = 127): 0.4517
- Representative Traces ([1]; t [s] = 128): 0.4361
- Representative Traces ([1]; t [s] = 129): 0.4908
- Representative Traces ([1]; t [s] = 130): 0.4396
- Representative Traces ([1]; t [s] = 131): 0.3944
- Representative Traces ([1]; t [s] = 132): 0.397
- Representative Traces ([1]; t [s] = 133): 0.4059
- Representative Traces ([1]; t [s] = 134): 0.4164
- Representative Traces ([1]; t [s] = 135): 0.475
- Representative Traces ([1]; t [s] = 136): 0.486
- Representative Traces ([1]; t [s] = 137): 0.4478
- Representative Traces ([1]; t [s] = 138): 0.507
- Representative Traces ([1]; t [s] = 139): 0.3865
- Representative Traces ([1]; t [s] = 140): 0.4564
- Representative Traces ([1]; t [s] = 141): 0.4199
- Representative Traces ([1]; t [s] = 142): 0.4501
- Representative Traces ([1]; t [s] = 143): 0.4218
- Representative Traces ([1]; t [s] = 144): 0.4033
- Representative Traces ([1]; t [s] = 145): 0.441
- Representative Traces ([1]; t [s] = 146): 0.3827
- Representative Traces ([1]; t [s] = 147): 0.3962
- Representative Traces ([1]; t [s] = 148): 0.4486
- Representative Traces ([1]; t [s] = 149): 0.4251
- Representative Traces ([1]; t [s] = 150): 0.3547
- Representative Traces ([1]; t [s] = 151): 0.4491
- Representative Traces ([1]; t [s] = 152): 0.3776
- Representative Traces ([1]; t [s] = 153): 0.3808
- Representative Traces ([1]; t [s] = 154): 0.3286
- Representative Traces ([1]; t [s] = 155): 0.4639
- Representative Traces ([1]; t [s] = 156): 0.435
- Representative Traces ([1]; t [s] = 157): 0.3725
- Representative Traces ([1]; t [s] = 158): 0.3522
- Representative Traces ([1]; t [s] = 159): 0.4127
- Representative Traces ([1]; t [s] = 160): 0.3983
- Representative Traces ([1]; t [s] = 161): 0.3945
- Representative Traces ([1]; t [s] = 162): 0.3807
- Representative Traces ([1]; t [s] = 163): 0.4372
- Representative Traces ([1]; t [s] = 164): 0.4557
- Representative Traces ([1]; t [s] = 165): 0.4341
- Representative Traces ([1]; t [s] = 166): 0.3757
- Representative Traces ([1]; t [s] = 167): 0.3677
- Representative Traces ([1]; t [s] = 168): 0.4335
- Representative Traces ([1]; t [s] = 169): 0.3827
- Representative Traces ([1]; t [s] = 170): 0.3934
- Representative Traces ([1]; t [s] = 171): 0.3476
- Representative Traces ([1]; t [s] = 172): 0.3794
- Representative Traces ([1]; t [s] = 173): 0.3525
- Representative Traces ([1]; t [s] = 174): 0.3963
- Representative Traces ([1]; t [s] = 175): 0.3642
- Representative Traces ([1]; t [s] = 176): 0.3906
- Representative Traces ([1]; t [s] = 177): 0.3677
- Representative Traces ([1]; t [s] = 178): 0.392
- Representative Traces ([1]; t [s] = 179): 0.4104
- Representative Traces ([1]; t [s] = 180): 0.4065
- Representative Traces ([1]; t [s] = 181): 0.4021
- Representative Traces ([1]; t [s] = 182): 0.3788
- Representative Traces ([1]; t [s] = 183): 0.3953
- Representative Traces ([1]; t [s] = 184): 0.397
- Representative Traces ([1]; t [s] = 185): 0.4128
- Representative Traces ([1]; t [s] = 186): 0.3872
- effect on the rate of the fast DRX phase [2]: no effect
- Bar graph (Figure 3b, mant-ATP chase) ([2]; Figure 3b source data, individual replicate values): 60.72 and 53.1 and 55.77 and 61 and 84.67 and 56.52 and 70.86
- Representative Traces (mant-ATP chase, fluorescence signal over time) ([2]; t = 796 s): 0.1829
- Representative Traces (mant-ATP chase, fluorescence signal over time) ([2]; t = 797 s): 0.2272
- kfast [2, 4]: 0.05914 s⁻¹ and 0.02268 s⁻¹ and 0.03788 s⁻¹ and 0.03196 s⁻¹ and 0.0963 s⁻¹ and 0.1619 s⁻¹
- kslow [2, 4]: 0.004733 s⁻¹ and 0.003729 s⁻¹ and 0.003941 s⁻¹ and 0.001622 s⁻¹ and 0.001835 s⁻¹ and 0.001574 s⁻¹
- slow phase [2, 4]: 53.1% and 55.77% and 61% and 84.67% and 56.52% and 70.86%
- kslow ([2]; control 0.0046 ± 0.0007): 0.0027 ± 0.0005 s⁻¹
- Slow Phase [%] (SRX amplitude) ([2]; control 22.9 ± 2.8): 63.2 ± 4.2% and ~63%
- kfast ([2]; control […]): 0.0784 ± 0.0208 s⁻¹
